Assay results taken from ChEMBL document CHEMBL5727399, “Ectonucleotidase inhibitors and methods of use thereof” (2019).
Several values for one entry are separate records, joined by “and”; a condition that tells them apart may be missing. Identical values can stand only once.

Biological target: 5'-nucleotidase (Homo sapiens, UniProt P21589)
Experiment: The concentration of inorganic phosphate was determined using a phosphate standard curve.

Chain of 5'-nucleotidase (P21589 whole entry): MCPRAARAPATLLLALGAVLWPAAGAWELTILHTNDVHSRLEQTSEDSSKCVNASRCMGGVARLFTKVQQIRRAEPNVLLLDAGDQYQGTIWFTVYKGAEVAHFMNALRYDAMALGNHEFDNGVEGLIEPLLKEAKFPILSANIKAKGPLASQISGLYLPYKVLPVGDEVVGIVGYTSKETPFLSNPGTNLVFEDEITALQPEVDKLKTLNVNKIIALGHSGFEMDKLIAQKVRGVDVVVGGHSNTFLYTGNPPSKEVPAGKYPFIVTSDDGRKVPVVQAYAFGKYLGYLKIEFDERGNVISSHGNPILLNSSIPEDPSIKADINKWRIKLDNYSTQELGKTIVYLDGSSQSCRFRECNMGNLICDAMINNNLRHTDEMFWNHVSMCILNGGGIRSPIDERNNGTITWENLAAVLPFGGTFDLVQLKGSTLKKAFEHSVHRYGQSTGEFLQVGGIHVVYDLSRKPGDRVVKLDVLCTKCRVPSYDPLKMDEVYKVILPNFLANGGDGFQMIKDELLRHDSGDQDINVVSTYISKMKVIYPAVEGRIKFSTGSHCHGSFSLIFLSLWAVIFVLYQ

Compound	IC50
O=C(O)C(OC[C@H]1O[C@@H](n2cnc3c(NCc4ccccc4)nc(Cl)nc32)[C@@H](F)[C@@H]1O)C(=O)O	8780 nM
Nc1nc(Cl)nc2c1ncn2[C@H]1C[C@H](O)[C@@H](COC(C(=O)O)C(=O)O)O1	> 50000 nM
CNC(=O)C(OC[C@H]1O[C@@H](n2cnc3c(N)nc(Cl)nc32)[C@@H](F)[C@@H]1O)P(=O)(O)O (some centres not stated)	12000 nM
Nc1nc(Cl)nc2c1ncn2[C@@H]1O[C@H](COC(CC(=O)O)(C(=O)O)C(=O)O)[C@@H](O)[C@@H]1F	2560 nM
[N-]=[N+]=N[C@H]1[C@@H](O)[C@H](n2cnc3c(N)nc(Cl)nc32)O[C@@H]1COC(C(=O)O)C(=O)O	> 50000 nM
Nc1nc(Cl)nc2c1ncn2[C@@H]1O[C@H](COC(CC(=O)O)C(=O)O)[C@@H](O)[C@@H]1F (some centres not stated)	> 50000 nM
CCOC(=O)C(OC[C@H]1O[C@@H](n2cnc3c(N)nc(Cl)nc32)[C@@H](F)[C@@H]1O)P(=O)(O)O (single isomer, unassigned)	2790 nM and 8910 nM
COC(=O)C(Cc1ccc(-c2ccccc2)cc1)(OC[C@H]1O[C@@H](n2cnc3c(N)nc(Cl)nc32)[C@@H](F)[C@@H]1O)C(=O)O (single isomer, unassigned)	2860 nM and 3430 nM
CCOC(=O)C(Cc1ccc(-c2ccccc2)cc1)(OC[C@H]1O[C@@H](n2cnc3c(N)nc(Cl)nc32)[C@@H](F)[C@@H]1O)C(=O)O (single isomer, unassigned)	7260 nM and 8260 nM
CCOC(=O)C(OC[C@H]1O[C@@H](n2cnc3c(NC(=O)OC(C)(C)C)nc(Cl)nc32)[C@@H](F)[C@@H]1O)P(=O)(O)O (single isomer, unassigned)	2470 nM and 2950 nM

Further lines, results first:

IC50	Compound
602 nM	Nc1nc(Cl)nc2c1ncn2[C@@H]1O[C@H](COC(Cc2cnc(C(=O)O)s2)(C(=O)O)C(=O)O)[C@@H](O)[C@@H]1F
887 nM	N#Cc1ccc(CC(OC[C@H]2O[C@@H](n3cnc4c(N)nc(Cl)nc43)[C@@H](F)[C@@H]2O)(C(=O)O)C(=O)O)cc1F
29 nM	Nc1nc(Cl)nc2c1ncn2[C@@H]1O[C@H](COC(Cc2ccc(-c3ccccc3)cc2)(C(=O)O)C(=O)O)[C@@H](O)[C@@H]1F
1280 nM	N#Cc1cccc(CC(OC[C@H]2O[C@@H](n3cnc4c(N)nc(N=[N+]=[N-])nc43)[C@@H](F)[C@@H]2O)(C(=O)O)C(=O)O)c1
718 nM	CCOC(=O)C(Cc1ccc(OC(F)(F)F)cc1)(OC[C@H]1O[C@@H](n2cnc3c(N)nc(Cl)nc32)[C@@H](F)[C@@H]1O)C(=O)O (some centres not stated)
1890 nM	Nc1nc(Cl)nc2c1ncn2[C@@H]1O[C@H](COC(CCCCO)(C(=O)O)C(=O)O)[C@@H](O)[C@@H]1F
1510 nM	N#CCC(OC[C@H]1O[C@@H](n2cnc3c(N)nc(Cl)nc32)[C@@H](F)[C@@H]1O)(C(=O)O)C(=O)O
